Measurements from paper PMC7463651, “Phase I/Ib Study of Tenalisib (RP6530), a Dual PI3K δ/γ Inhibitor in Patients with Relapsed/Refractory T-Cell Lymphoma” (Cancers, 2020).
Entries after “also recorded” stand apart in the source; their conditions may differ.

Tested on: patients with relapsed/refractory T Cell Lymphoma
Test: Safety assessment (adverse events per CTCAE v4.03, DLT/MTD) in phase I/Ib study
Assay type: in vivo, human
Procedure: Protocol defined hematological or non-hematological toxicity was considered dose-limiting if it occurred during the first cycle (within the first 28 d) and was considered related to Tenalisib. Hematological DLTs was defined as Grade 4 anemia; Grade 4 neutropenia for >7 days, or Grade ≥3 febrile neutropenia with fever >38.5 °C [101 °F]; Grade 4 thrombocytopenia for >7 days, or Grade ≥3 thrombocytopenia associated with Grade >2 bleeding.
Safety assessment included adverse event (AE) and serious adverse events (SAE) as per Common Terminology Criteria for Adverse Events (CTCAE), Version 4.03. During dose escalation, safety assessments were performed at weekly intervals during Cycle 1 and Cycle 2 and at two weekly intervals during Cycle 3 and 4. After completion of Cycle 4, safety assessments were performed on Day 1 of each subsequent cycle. In dose expansion phase, all safety assessments were performed on Day 1 of each cycle.

[1] = Relationship-Related, Dose Escalation (N = 19)
[2] = Relationship-Related, Dose Expansion (N = 39)
[3] = Relationship-Related, Total (N = 58)
[4] = Relationship-all, Dose Escalation (N = 19)
[5] = Relationship-all, Dose Expansion (N = 39)

## CC[C@H](Nc1ncnc2[nH]cnc12)c1oc2ccccc2c(=O)c1-c1cccc(F)c1 [Tenalisib]
BID, fasting
  Maximum tolerated dose (MTD): 800 mg
CTCL patients
  Number of related AEs: 208
  Number of related ≥Grade 3 AEs: 25
  Patients with related AEs: 27 (90%) n (%)
  Patients with related ≥Grade 3 AEs: 12 (40%) n (%)
Cohort 4, 800 mg BID (fed)
  Dose-limiting toxicities (DLT): Two dose-limiting toxicities; also recorded: Two DLTs (Grade 3 ALT increased and Grade 3 erythematous rash)
PTCL patients
  Number of related AEs: 51
[1]
  Neutropenia: patients with event: 2 (10.5%) n (%)
  Pruritus: count of events: 1
  Pruritus: patients with event: 1 (5.3%) n (%)
  Pyrexia: patients with event: 0 n (%)
  Vomiting: count of events: 3
  Vomiting: patients with event: 2 (10.5%) n (%)
[2]
  Alanine aminotransferase increased: count of events: 18
  Alanine aminotransferase increased: patients with event: 12 (30.8%) n (%)
  Anemia: count of events: 2
  Anemia: patients with event: 2 (5.1%) n (%)
  Aspartate aminotransferase increased: count of events: 20
  Aspartate aminotransferase increased: patients with event: 12 (30.8%) n (%)
  Blood alkaline phosphatase increased: count of events: 2
  Blood alkaline phosphatase increased: patients with event: 2 (5.1%) n (%)
  Blood thyroid stimulating hormone increased: count of events: 3
  Blood thyroid stimulating hormone increased: patients with event: 2 (5.1%) n (%)
  Dehydration: count of events: 3
  Dehydration: patients with event: 3 (7.7%) n (%)
  Diarrhea: count of events: 10
  Diarrhea: patients with event: 9 (23.1%) n (%)
  Dizziness: count of events: 3
  Dizziness: patients with event: 3 (7.7%) n (%)
  Dyspepsia: count of events: 2
  Dyspepsia: patients with event: 2 (5.1%) n (%)
  Erythema: count of events: 2
  Erythema: patients with event: 2 (5.1%) n (%)
  Fatigue: count of events: 7
  Fatigue: patients with event: 7 (17.9%) n (%)
  Gamma-glutamyltransferase increased: count of events: 7
  Gamma-glutamyltransferase increased: patients with event: 5 (12.8%) n (%)
  Headache: count of events: 2
  Headache: patients with event: 2 (5.1%) n (%)
  Muscle spasms: count of events: 3
  Muscle spasms: patients with event: 3 (7.7%) n (%)
  Nausea: count of events: 2
  Nausea: patients with event: 2 (5.1%) n (%)
  Neutropenia: count of events: 1
  Neutropenia: patients with event: 1 (2.6%) n (%)
  Pruritus: count of events: 3
  Pruritus: patients with event: 3 (7.7%) n (%)
  Pyrexia: count of events: 5
  Pyrexia: patients with event: 3 (7.7%) n (%)
  Vomiting: count of events: 1
  Vomiting: patients with event: 1 (2.6%) n (%)
[3]
  Alanine aminotransferase increased: count of events: 31
  Alanine aminotransferase increased: patients with event: 18 (31.0%) n (%)
  Anemia: count of events: 3
  Anemia: patients with event: 3 (5.2%) n (%)
  Aspartate aminotransferase increased: count of events: 35
  Aspartate aminotransferase increased: patients with event: 18 (31.0%) n (%)
  Blood alkaline phosphatase increased: count of events: 3
  Blood alkaline phosphatase increased: patients with event: 3 (5.2%) n (%)
  Blood thyroid stimulating hormone increased: count of events: 5
  Blood thyroid stimulating hormone increased: patients with event: 4 (6.9%) n (%)
  Dehydration: count of events: 4
  Dehydration: patients with event: 4 (6.9%) n (%)
  Diarrhea: count of events: 14
  Diarrhea: patients with event: 12 (20.7%) n (%)
  Dizziness: count of events: 5
  Dizziness: patients with event: 5 (8.6%) n (%)
  Dyspepsia: count of events: 3
  Dyspepsia: patients with event: 3 (5.2%) n (%)
  Erythema: count of events: 3
  Erythema: patients with event: 3 (5.2%) n (%)
  Fatigue: count of events: 9
  Fatigue: patients with event: 9 (15.5%) n (%)
  Gamma-glutamyltransferase increased: count of events: 9
  Gamma-glutamyltransferase increased: patients with event: 7 (12.1%) n (%)
  Headache: count of events: 6
  Headache: patients with event: 5 (8.6%) n (%)
  Muscle spasms: count of events: 6
  Muscle spasms: patients with event: 5 (8.6%) n (%)
  Nausea: count of events: 4
  Nausea: patients with event: 3 (5.2%) n (%)
  Neutropenia: count of events: 3
  Neutropenia: patients with event: 3 (5.2%) n (%)
  Pruritus: count of events: 4
  Pruritus: patients with event: 4 (6.9%) n (%)
  Pyrexia: count of events: 5
  Pyrexia: patients with event: 3 (5.2%) n (%)
  Vomiting: count of events: 4
  Vomiting: patients with event: 3 (5.2%) n (%)
Relationship-all
  Grade 3/4 Alanine aminotransferase increased: count of events: 5
  Grade 3/4 Alanine aminotransferase increased: patients with event: 5 (26.3%) n (%)
  Grade 3/4 Anemia: count of events: 2
  Grade 3/4 Anemia: patients with event: 2 (10.5%) n (%)
  Grade 3/4 Aspartate aminotransferase increased: count of events: 4
  Grade 3/4 Aspartate aminotransferase increased: patients with event: 4 (21.1%) n (%)
  Grade 3/4 Fatigue: count of events: 1
  Grade 3/4 Fatigue: patients with event: 1 (5.3%) n (%)
  Grade 3/4 Hyponatremia: count of events: 2
  Grade 3/4 Hyponatremia: patients with event: 2 (10.5%) n (%)
  Grade 3/4 Neutropenia: count of events: 2
  Grade 3/4 Neutropenia: patients with event: 2 (10.5%) n (%)
  Grade 3/4 Thrombocytopenia: count of events: 1
  Grade 3/4 Thrombocytopenia: patients with event: 1 (5.3%) n (%)
[4]
  Abdominal pain: count of events: 3
  Abdominal pain: patients with event: 3 (15.8%) n (%)
  Alanine aminotransferase increased: count of events: 13
  Alanine aminotransferase increased: patients with event: 6 (31.6%) n (%)
  Anemia: count of events: 6
  Anemia: patients with event: 3 (15.8%) n (%)
  Aspartate aminotransferase increased: count of events: 16
  Aspartate aminotransferase increased: patients with event: 7 (36.8%) n (%)
  Blood creatinine increased: count of events: 1
  Vomiting: count of events: 5
  Vomiting: patients with event: 4 (21.1%) n (%)
[5]
  Abdominal pain: count of events: 6
  Abdominal pain: patients with event: 5 (12.8%) n (%)
  Alanine aminotransferase increased: count of events: 20
  Alanine aminotransferase increased: patients with event: 14 (35.9%) n (%)
  Anemia: count of events: 10
  Anemia: patients with event: 6 (15.4%) n (%)
  Aspartate aminotransferase increased: count of events: 21
  Aspartate aminotransferase increased: patients with event: 14 (35.9%) n (%)
  Blood creatinine increased: count of events: 6
  Blood creatinine increased: patients with event: 6 (15.4%) n (%)
  Blood thyroid stimulating hormone increased: count of events: 5
  Blood thyroid stimulating hormone increased: patients with event: 4 (10.3%) n (%)
  Constipation: count of events: 5
  Constipation: patients with event: 5 (12.8%) n (%)
  Cough: count of events: 9
  Cough: patients with event: 7 (17.9%) n (%)
  Decreased appetite: count of events: 8
  Decreased appetite: patients with event: 7 (17.9%) n (%)
  Dehydration: count of events: 13
  Dehydration: patients with event: 10 (25.6%) n (%)
  Diarrhea: count of events: 19
  Diarrhea: patients with event: 14 (35.9%) n (%)
  Dizziness: count of events: 9
  Dizziness: patients with event: 7 (17.9%) n (%)
  Dry skin: count of events: 6
  Dry skin: patients with event: 5 (12.8%) n (%)
  Dyspnea: count of events: 2
  Dyspnea: patients with event: 2 (5.1%) n (%)
  Fatigue: count of events: 19
  Fatigue: patients with event: 18 (46.2%) n (%)
  Gamma-glutamyl transferase increased: count of events: 9
  Gamma-glutamyl transferase increased: patients with event: 6 (15.4%) n (%)
  Headache: count of events: 9
  Headache: patients with event: 7 (17.9%) n (%)
  Hypokalemia: count of events: 5
  Hypokalemia: patients with event: 3 (7.7%) n (%)
  Hyponatremia: count of events: 5
  Hyponatremia: patients with event: 4 (10.3%) n (%)
  Insomnia: count of events: 4
  Insomnia: patients with event: 3 (7.7%) n (%)
  Muscle spasms: count of events: 4
  Muscle spasms: patients with event: 4 (10.3%) n (%)
  Nausea: count of events: 9
  Nausea: patients with event: 9 (23.1%) n (%)
  Pruritus: count of events: 5
  Pruritus: patients with event: 5 (12.8%) n (%)
  Psychiatric disorders: count of events: 12
  Psychiatric disorders: patients with event: 7 (17.9%) n (%)
  Pyrexia: count of events: 17
